From US20140087970A1, “SERINE BIOSYNTHESIS PATHWAY INHIBITION FOR TREATMENT OF CANCER” (Whitehead Institute for Biomedical Research, priority 2011, published 2014)

System: cell lines with elevated PHGDH expression (BT-20, MDA-MB-468, HCC70, Hs578T and MT3)
Assay: Cell proliferation assay after lentiviral shRNA infection
Assay type: cell-based, human
Conditions: media supplemented during PHGDH knockdown
Procedure: For PHGDH or PSPH knockdown experiments, 10,000-20,000 MDA-MB-468, BT-20, HCC70, MCF-7, or MDA-MB-23 I cells were infected with shRNA-expressing lentiviruses of known titers at a multiplicity of infection of 2.5 to 5. Cells were cultured in 12-well plates and infected via a 30-minute spin at 2,250 RPM in a Beckman Coulter Allegra X-12R centrifuge with an SX4750 rotor and uPlate Carrier attachment followed by an overnight incubation in media containing polybrene. Eight days after infection the number of cells was determined using a Coulter Counter (Beckman) and used to calculate relative cell proliferation. Where indicated, standard RPMI media was supplemented with serine to concentrations 5-fold that of the serine already in the media. Where indicated, supplementation occurred at one and four days after lentiviral infection. For serine depletion experiments, cells were plated out as described above and the following day the standard culture medium was replaced with medium lacking serine or reconstituted with 1× serine. Dialyzed serum (3 kDa MWCO) was utilized in serine depletion experiments except in the case of MCF-10A cells, where standard 5% serum was utilized.

Compound	effect of media supplementation on the PHGDH knockdown proliferation phenotype
COC(=O)C(N)CO (centres unmarked) [methyl-serine-ester]	did not blunt the effects of the PHGDH knockdown
N[C@@H](CO)C(=O)O [serine]	did not blunt the effects of the PHGDH knockdown
